From patent US4387218A, “Anthracycline antibiotics FA-1180 B and B1, or salts thereof” (priority 1979, dated 1983)
Converted amounts (≈) assume the structure as drawn. Structures can show the parent of a compound that is named as a salt. Where two headings read alike, the source gives them in different places.

Tests used:
Escherichia coli P3478 = assay: minimum inhibitory concentration (MIC) by the agar dilution method, Escherichia coli P3478; assay type: cell-based; conditions: Brain heart infusion agar, 18 hrs after inoculation
Method: (§1) The minimum inhibitory concentration (MIC) of the FA-118O A, A1, B or B1 was determined by the agar dilution method, and the results are indicated in Table 5 below.
(§2) (1) Medium: Brain heart infusion agar
(§3) (2) Determined: 18 hrs after inoculation

[1] = test system: Bacillus subtilis PCI 219; assay: minimum inhibitory concentration (MIC) by the agar dilution method, Bacillus subtilis PCI 219; assay type: cell-based; conditions: Brain heart infusion agar, 18 hrs after inoculation
Method: as §1, §2, §3

tumor = assay: antitumor activity (summary statement); conditions: summary in words
Method: (§4) The test was conducted in accordance with the method described in Cancer Chemotherapy Reports, Part 3, Vol. 3, No. 2, p. 9, September 1972. Mice inoculated intraperitoneally with 1×10^6 cells of P-388 were administered with the test compounds daily on days 1 to 5. The activity (T/C) of the test compounds is represented by the ratio of the median survival time of the treated group to that of the control group.
(§5) The tumor cell suspension was prepared from cells taken from ascites of rats to which 1×10^6 cells of Yoshida rat sarcoma had been inoculated before 3 to 5 days. The ascites was diluted with a medium which was constituted from 80 to 90% (v/v) Fischer's solution containing 20 to 10% (v/v) desensitized horse serum. One half milliliter of the cell suspension containing 5~20×10^4 cells thus prepared was placed in a small test tube. A substance to be tested was dissolved and diluted with the same medium and 0.5 ml of the diluted solution was added to the cell suspension. To the control tube was added 0.5 ml of the medium. 2 to 5 tubes were used for each experimental units. They were incubated statically at 37° C. for 2 to 3 days. After the incubation, growth was measured by observing the quantity of precipitated cells on the bottom of the test tube with the naked eyes. Growth inhibitory effect of a substance was expressed by the concentration pointing 50 percent growth of the control growth.

[2] = test system: Serratia marcescens IFO 12648; assay: minimum inhibitory concentration (MIC) by the agar dilution method, Serratia marcescens IFO 12648; assay type: cell-based; conditions: 18 hrs after inoculation
Method: as §1, §2, §3

Candida albicans = assay: minimum inhibitory concentration (MIC) by the agar dilution method, Candida albicans; assay type: cell-based; conditions: Brain heart infusion agar, 18 hrs after inoculation
Method: as §1, §2, §3

[3] = test system: Klebsiella pneumoniae IFO 3512; assay: minimum inhibitory concentration (MIC) by the agar dilution method, Klebsiella pneumoniae IFO 3512; assay type: cell-based; conditions: 18 hrs after inoculation
Method: as §1, §2, §3

Staphylococcus aureus = assay: minimum inhibitory concentration (MIC) by the agar dilution method, Staphylococcus aureus; assay type: cell-based; conditions: Brain heart infusion agar, 18 hrs after inoculation
Method: as §1, §2, §3

Yoshida rat sarcoma = assay: growth inhibitory effect on Yoshida rat sarcoma cells; assay type: cell-based; conditions: for IC50: Rattus norvegicus, YOSHIDA, read-out: Growth Inhibitory Effect IC50
Method: as §5
IC50 : The concentration pointing 50% growth of the control growth.

[4] = test system: Salmonella typhimurium IFO 12529; assay: minimum inhibitory concentration (MIC) by the agar dilution method, Salmonella typhimurium IFO 12529; assay type: cell-based; conditions: Brain heart infusion agar, 18 hrs after inoculation
Method: as §1, §2, §3

Pseudomonas aeruginosa H = assay: minimum inhibitory concentration (MIC) by the agar dilution method, Pseudomonas aeruginosa H; assay type: cell-based; conditions: Brain heart infusion agar, 18 hrs after inoculation
Method: as §1, §2, §3

Bacillus subtilis 17 A = assay: minimum inhibitory concentration (MIC) by the agar dilution method, Bacillus subtilis 17 A; assay type: cell-based; conditions: Brain heart infusion agar, 18 hrs after inoculation
Method: as §1, §2, §3

[5] = test system: Staphylococcus aureus 209 P; assay: minimum inhibitory concentration (MIC) by the agar dilution method, Staphylococcus aureus 209 P; assay type: cell-based; conditions: Brain heart infusion agar, 18 hrs after inoculation
Method: as §1, §2, §3

Escherichia coli W3110 = assay: minimum inhibitory concentration (MIC) by the agar dilution method, Escherichia coli W3110; assay type: cell-based; conditions: Brain heart infusion agar, 18 hrs after inoculation
Method: as §1, §2, §3

Gram-positive bacteria = assay: ability to inhibit the growth of Gram-positive bacteria (summary statement); assay type: cell-based; conditions: summary in words
Method: as §1

Escherichia coli NIHJ = assay: minimum inhibitory concentration (MIC) by the agar dilution method, Escherichia coli NIHJ; assay type: cell-based; conditions: Brain heart infusion agar, 18 hrs after inoculation
Method: as §1, §2, §3

Bacillus subtilis 45 T = assay: minimum inhibitory concentration (MIC) by the agar dilution method, Bacillus subtilis 45 T; assay type: cell-based; conditions: Brain heart infusion agar, 18 hrs after inoculation
Method: as §1, §2, §3

Bacillus cereus IAM 1729 = assay: minimum inhibitory concentration (MIC) by the agar dilution method, Bacillus cereus IAM 1729; assay type: cell-based; conditions: IAM1729, Brain heart infusion agar, 18 hrs after inoculation
Method: as §1, §2, §3

Solubility = assay type: physicochemical
P-388 Mice Leukemia = assay: therapeutic effect against P-388 Mice Leukemia; assay type: in vivo; conditions: daily on days 1 to 5, 1×10^6 P-388 cells intraperitoneally
Method: as §4

[6] = concentration pointing 50% growth of the control growth, 37° C., 2 to 3 days, Fischer's solution with horse serum
[7] = Bacillus subtilis, PCI219, 18 h, read-out: MIC
[8] = IFO12648, Brain heart infusion agar, read-out: MIC
[9] = IFO3512, Brain heart infusion agar, read-out: MIC
[10] = Salmonella enterica, read-out: MIC

Compound	MIC (Escherichia coli P3478)	MIC [1]	antitumor activity (tumor)	MIC ([2]; Brain heart infusion agar)	MIC (Candida albicans)	MIC ([3]; Brain heart infusion agar)	MIC (Staphylococcus aureus)	Growth Inhibitory Effect IC50 (Yoshida rat sarcoma; [6])	MIC [4]	MIC (Pseudomonas aeruginosa H)	MIC (Bacillus subtilis 17 A)	MIC [5]	MIC (Escherichia coli W3110)	ability to inhibit the growth of Gram-positive bacteria (Gram-positive bacteria)	MIC (Escherichia coli NIHJ)	MIC (Bacillus subtilis 45 T)	MIC (Bacillus cereus IAM 1729)	Activity (T/C), ratio of median survival time of treated group to control group (P-388 Mice Leukemia; 0.25 mg/kg/day)	Activity (T/C), ratio of median survival time of treated group to control group (P-388 Mice Leukemia; 0.5 mg/kg/day)	Activity (T/C), ratio of median survival time of treated group to control group (P-388 Mice Leukemia; 1.0 mg/kg/day)	further results
CC(=O)C1(O)Cc2c(O)c3c(c(O)c2C(OC2CC(N)C(OC(CC(C)O)OC(C)CO)C(C)O2)C1)C(=O)c1c(O)cccc1C3=O (centres unmarked) [FA-1180 A1]	> 100 ppm	1.56 ppm	antitumor activity	> 100 ppm	> 100 ppm	> 100 ppm	12.5 ppm	10^-3 μg/ml	> 100 ppm	> 100 ppm	1.56 ppm	12.5 ppm	> 100 ppm	strong ability to inhibit the growth of Gram-positive bacteria	> 100 ppm	< 0.2 ppm					
CC(O)CC(OC(C)CO)OC1C(N)CC(OC2CC(O)(C(C)O)Cc3c(O)c4c(c(O)c32)C(=O)c2c(O)cccc2C4=O)OC1C (centres unmarked) [FA-1180 B]			antitumor activity											strong ability to inhibit the growth of Gram-positive bacteria			25 µg/mL (≈ 37.8 µM)	143%	162%	190%	MIC (Escherichia coli P3478; read-out: MIC): > 100 µg/mL; MIC [1, 7]: 6.25 µg/mL (≈ 9.45 µM); MIC [2, 8]: > 100 µg/mL; MIC (Candida albicans; read-out: MIC): > 100 µg/mL; Solubility in chloroform (Solubility): soluble; Solubility in methanol (Solubility): freely soluble; Solubility in n-hexane (Solubility): slightly soluble; MIC [3, 9]: > 100 µg/mL; MIC (Staphylococcus aureus; read-out: MIC): 50 µg/mL (≈ 75.6 µM); IC50 (Yoshida rat sarcoma; [6]): 0.01 µg/mL (≈ 0.0151 µM); MIC [4, 10]: > 100 µg/mL; MIC (Pseudomonas aeruginosa H; read-out: MIC): > 100 µg/mL; MIC (Bacillus subtilis 17 A; read-out: MIC): 12.5 µg/mL (≈ 18.9 µM); MIC ([5]; read-out: MIC): 50 µg/mL (≈ 75.6 µM); MIC (Escherichia coli W3110; read-out: MIC): > 100 µg/mL; MIC (Escherichia coli NIHJ; read-out: MIC): > 100 µg/mL; MIC (Bacillus subtilis 45 T; read-out: MIC): 0.4 µg/mL (≈ 0.605 µM)
CC(O)CC(OC(C)CO)OC1C(N)CC(OC2CC(O)(C(C)O)Cc3c(O)c4c(c(O)c32)C(=O)c2c(O)cccc2C4=O)OC1C (centres unmarked) [FA-1180 B1]	> 100 ppm	3.125 ppm	antitumor activity	> 100 ppm	> 100 ppm	> 100 ppm	50 ppm	10^-2 μg/ml	> 100 ppm	> 100 ppm	12.5 ppm	50 ppm	> 100 ppm	strong ability to inhibit the growth of Gram-positive bacteria	> 100 ppm	0.4 ppm		151%	168%	179%	
COc1cccc2c1C(=O)c1c(O)c3c(c(O)c1C2=O)C[C@@](O)(C(=O)CO)C[C@@H]3O[C@H]1C[C@H](N)[C@H](O)[C@H](C)O1 [Adriamycin hydrochloride, reference compound]																					IC50 (Yoshida rat sarcoma): 0.01 µg/mL
O=c1[nH]cc(F)c(=O)[nH]1 [5-FU, reference compound]																					Activity (T/C), ratio of median survival time of treated group to control group (P-388 Mice Leukemia; 20 mg/kg/day): 198%
CC(=O)C1(O)Cc2c(O)c3c(c(O)c2C(OC2CC(N)C(OC(CC(C)O)OC(C)CO)C(C)O2)C1)C(=O)c1c(O)cccc1C3=O (centres unmarked) [FA-1180 A]			antitumor activity					10^-2 μg/ml						strong ability to inhibit the growth of Gram-positive bacteria			3.12 µg/mL (≈ 4.74 µM)	148%	167%	205%	MIC (Escherichia coli P3478; read-out: MIC): > 100 µg/mL; MIC [1, 7]: 1.56 µg/mL (≈ 2.36 µM); MIC [2, 8]: > 100 µg/mL; MIC (Candida albicans; read-out: MIC): > 100 µg/mL; Solubility in chloroform (Solubility): soluble; Solubility in methanol (Solubility): freely soluble; Solubility in n-hexane (Solubility): slightly soluble; MIC [3, 9]: > 100 µg/mL; MIC (Staphylococcus aureus; read-out: MIC): 12.5 µg/mL (≈ 18.9 µM); MIC [4, 10]: > 100 µg/mL; MIC (Pseudomonas aeruginosa H; read-out: MIC): > 100 µg/mL; MIC (Bacillus subtilis 17 A; read-out: MIC): 1.56 µg/mL (≈ 2.36 µM); MIC ([5]; read-out: MIC): 12.5 µg/mL (≈ 18.9 µM); MIC (Escherichia coli W3110; read-out: MIC): > 100 µg/mL; MIC (Escherichia coli NIHJ; read-out: MIC): > 100 µg/mL; MIC (Bacillus subtilis 45 T; read-out: MIC): < 0.2 µg/mL
